Test results as given in PubChem BioAssay (NCI).
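The concentration for 50% growth inhibition is given as GI50. Definition used: TGI = concentration required for complete inhibition of growth.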

Key:
Experiment in all cases: growth of human tumour cells (NCI), 384-well format
[1] = test system: DU-145 prostate
[2] = test system: MOLT-4 leukemia
[3] = test system: SR leukemia
[4] = test system: COLO 205 colon
[5] = test system: SN12C renal
[6] = test system: HCC-2998 colon
[7] = test system: T-47D breast
[8] = test system: MDA-MB-231 breast
[9] = test system: HL-60(TB) leukemia
[10] = test system: UACC-62 melanoma
[11] = test system: NCI-H460 NSCLC
[12] = test system: SNB-19 CNS
[13] = test system: NCI/ADR-RES ovarian
[14] = test system: HOP-92 NSCLC
[15] = test system: SF-268 CNS
[16] = test system: MDA-MB-468 breast
[17] = test system: A498 renal
[18] = test system: HOP-62 NSCLC
[19] = test system: A549 NSCLC
[20] = test system: HT29 colon
[21] = test system: SK-MEL-28 melanoma
[22] = test system: NCI-H322M lung
[23] = test system: M14 melanoma
[24] = test system: HCT-15 colon
[25] = test system: RPMI-8226 leukemia
[26] = test system: UACC-257 melanoma
[27] = test system: KM12 colon
[28] = test system: SNB-75 CNS
[29] = test system: NCI-H522 lung
[30] = test system: PC-3 prostate
[31] = test system: MDA-MB-435 melanoma
[32] = test system: K-562 leukemia
[33] = test system: NCI-H23 lung
[34] = test system: SF-539 CNS
[35] = test system: CAKI-1 renal
[36] = test system: MCF7 breast
[37] = test system: 786-0 renal
[38] = test system: U251 glioblastoma
[39] = test system: LOX IMVI melanoma
[40] = test system: SK-OV-3 ovarian
[41] = test system: OVCAR-5 ovarian
[42] = test system: RXF 393 renal
[43] = test system: SK-MEL-5 melanoma
[44] = test system: OVCAR-8 ovarian
[45] = test system: SK-MEL-2 melanoma
[46] = test system: CCRF-CEM leukemia
[47] = test system: UO-31 renal

Molecule CS(=O)(=O)c1ccc(Oc2cc(F)cc(C#N)c2)c2c1[C@H](O)C(F)(F)C2 has a GI50 [1] greater than 100 µM, a TGI [1] greater than 100 µM and a GI50 [2] greater than 86.1 µM. For the same molecule, the TGI [2] was greater than 100 µM, the GI50 [3] was greater than 73.6 µM and the TGI [3] was greater than 100 µM. For the same molecule, the GI50 [4] was greater than 100 µM, the TGI [4] was greater than 100 µM and the GI50 [5] was greater than 100 µM. It also gave a TGI [5] greater than 100 µM, a GI50 [6] greater than 100 µM and a TGI [6] greater than 100 µM. For the same molecule, the GI50 [7] was greater than 100 µM, the TGI [7] was greater than 100 µM and the GI50 [8] was greater than 100 µM. The TGI [8] was greater than 100 µM, the GI50 [9] was greater than 66 µM and the TGI [9] was greater than 100 µM. It also gave a GI50 [10] greater than 100 µM, a TGI [10] greater than 100 µM and a GI50 [11] greater than 100 µM. The TGI [11] was greater than 100 µM, the GI50 [12] was greater than 100 µM and the TGI [12] was greater than 100 µM. It also gave a GI50 [13] greater than 100 µM, a TGI [13] greater than 100 µM and a GI50 [14] greater than 100 µM. It also gave a TGI [14] greater than 100 µM, a GI50 [15] greater than 100 µM and a TGI [15] greater than 100 µM. For the same molecule, the GI50 [16] was greater than 100 µM, the TGI [16] was greater than 100 µM and the GI50 [17] was greater than 100 µM. The TGI [17] was greater than 100 µM, the GI50 [18] was greater than 100 µM and the TGI [18] was greater than 100 µM. The GI50 [19] was greater than 100 µM, the TGI [19] was greater than 100 µM and the GI50 [20] was greater than 100 µM. The TGI [20] was greater than 100 µM, the GI50 [21] was greater than 100 µM and the TGI [21] was greater than 100 µM. For the same molecule, the GI50 [22] was greater than 100 µM, the TGI [22] was greater than 100 µM and the GI50 [23] was greater than 100 µM. The TGI [23] was greater than 100 µM, the GI50 [24] was greater than 100 µM and the TGI [24] was greater than 100 µM. For the same molecule, the GI50 [25] was greater than 100 µM, the TGI [25] was greater than 100 µM and the GI50 [26] was greater than 100 µM. For the same molecule, the TGI [26] was greater than 100 µM, the GI50 [27] was greater than 100 µM and the TGI [27] was greater than 100 µM. The GI50 [28] was greater than 100 µM, the TGI [28] was greater than 100 µM and the GI50 [29] was greater than 100 µM. The TGI [29] was greater than 100 µM, the GI50 [30] was greater than 100 µM and the TGI [30] was greater than 100 µM. The GI50 [31] was greater than 100 µM, the TGI [31] was greater than 100 µM and the GI50 [32] was greater than 100 µM. It also gave a TGI [32] greater than 100 µM, a GI50 [33] greater than 100 µM and a TGI [33] greater than 100 µM. For the same molecule, the GI50 [34] was greater than 100 µM, the TGI [34] was greater than 100 µM and the GI50 [35] was greater than 78.9 µM. The TGI [35] was greater than 100 µM, the GI50 [36] was greater than 100 µM and the TGI [36] was greater than 100 µM. For the same molecule, the GI50 [37] was greater than 100 µM, the TGI [37] was greater than 100 µM and the GI50 [38] was greater than 100 µM. The TGI [38] was greater than 100 µM, the GI50 [39] was greater than 100 µM and the TGI [39] was greater than 100 µM. For the same molecule, the GI50 [40] was greater than 100 µM, the TGI [40] was greater than 100 µM and the GI50 [41] was greater than 100 µM. The TGI [41] was greater than 100 µM, the GI50 [42] was greater than 100 µM and the TGI [42] was greater than 100 µM. The GI50 [43] was greater than 100 µM, the TGI [43] was greater than 100 µM and the GI50 [44] was greater than 100 µM. For the same molecule, the TGI [44] was greater than 100 µM, the GI50 [45] was greater than 100 µM and the TGI [45] was greater than 100 µM. It also gave a GI50 [46] greater than 100 µM, a TGI [46] greater than 100 µM and a GI50 [47] greater than 100 µM. For the same molecule, the TGI [47] was greater than 100 µM.
With CC(C)n1c(=O)n(C)c2cnc3cc(F)c(-c4ccc(OCCCN5CCCCC5)nc4)cc3c21 the GI50 [1] was greater than 89.7 µM, the TGI [1] was greater than 100 µM and the GI50 [2] was 5.66 µM. It also gave a TGI [2] greater than 40.4 µM, a GI50 [3] of 7.14 µM and a TGI [3] of 19.4 µM. The GI50 [4] was greater than 100 µM, the TGI [4] was greater than 100 µM and the GI50 [5] was 25.8 µM. It also gave a TGI [5] greater than 100 µM, a GI50 [6] of 30.5 µM and a TGI [6] greater than 80.3 µM. It also gave a GI50 [7] greater than 48.5 µM, a TGI [7] greater than 100 µM and a GI50 [8] of 36.3 µM. The TGI [8] was greater than 100 µM, the GI50 [9] was 11.8 µM and the TGI [9] was 47 µM. It also gave a GI50 [10] of 31.9 µM, a TGI [10] greater than 100 µM and a GI50 [11] of 18.6 µM. It also gave a TGI [11] greater than 100 µM, a GI50 [12] greater than 95.5 µM and a TGI [12] greater than 100 µM. It also gave a GI50 [13] greater than 100 µM, a TGI [13] greater than 100 µM and a GI50 [14] greater than 54.4 µM. The TGI [14] was greater than 100 µM, the GI50 [15] was 45.4 µM and the TGI [15] was greater than 100 µM. It also gave a GI50 [16] of 24.8 µM, a TGI [16] greater than 100 µM and a GI50 [17] greater than 73.4 µM. It also gave a TGI [17] greater than 100 µM, a GI50 [18] greater than 33.2 µM and a TGI [18] greater than 100 µM. For the same molecule, the GI50 [19] was greater than 100 µM, the TGI [19] was greater than 100 µM and the GI50 [20] was 22.3 µM. The TGI [20] was greater than 87.2 µM, the GI50 [21] was greater than 100 µM and the TGI [21] was greater than 100 µM. It also gave a GI50 [22] greater than 100 µM, a TGI [22] greater than 100 µM and a GI50 [23] greater than 75.7 µM. The TGI [23] was greater than 100 µM, the GI50 [24] was 52.3 µM and the TGI [24] was greater than 100 µM. It also gave a GI50 [25] of 6.13 µM, a TGI [25] of 42.1 µM and a GI50 [26] of 36.3 µM. It also gave a TGI [26] greater than 100 µM, a GI50 [27] of 4.57 µM and a TGI [27] greater than 100 µM. It also gave a GI50 [28] of 20.6 µM, a TGI [28] greater than 100 µM and a GI50 [29] of 20.8 µM. It also gave a TGI [29] greater than 82 µM, a GI50 [30] of 19.6 µM and a TGI [30] greater than 100 µM. For the same molecule, the GI50 [31] was greater than 100 µM, the TGI [31] was greater than 100 µM and the GI50 [32] was 4.93 µM. For the same molecule, the TGI [32] was greater than 46.8 µM, the GI50 [33] was greater than 77.1 µM and the TGI [33] was greater than 100 µM. The GI50 [34] was greater than 84.1 µM, the TGI [34] was greater than 100 µM and the GI50 [35] was 16.7 µM. The TGI [35] was greater than 95.8 µM, the GI50 [36] was greater than 56.4 µM and the TGI [36] was greater than 100 µM. For the same molecule, the GI50 [37] was greater than 77.4 µM, the TGI [37] was greater than 100 µM and the GI50 [38] was greater than 70.8 µM. For the same molecule, the TGI [38] was greater than 100 µM, the GI50 [39] was 72.5 µM and the TGI [39] was greater than 100 µM. For the same molecule, the GI50 [40] was greater than 62.5 µM, the TGI [40] was greater than 100 µM and the GI50 [41] was greater than 100 µM. The TGI [41] was greater than 100 µM, the GI50 [42] was greater than 63.4 µM and the TGI [42] was greater than 100 µM. The GI50 [43] was greater than 38.4 µM, the TGI [43] was greater than 100 µM and the GI50 [44] was greater than 43.4 µM. For the same molecule, the TGI [44] was greater than 100 µM, the GI50 [45] was 35.2 µM and the TGI [45] was greater than 70 µM. The GI50 [46] was 10.1 µM, the TGI [46] was greater than 46.7 µM and the GI50 [47] was 83.8 µM. The TGI [47] was greater than 100 µM.
